Data reported in ChEMBL document CHEMBL4304811, “Development of a Water-Soluble Indolylmaleimide Derivative IM-93 Showing Dual Inhibition of Ferroptosis and NETosis” (ACS Med Chem Lett, 2019).

Tests used:
[1] = biological target: Activin receptor type-1-like (Homo sapiens) (UniProt P37023); experiment: Binding affinity to wild-type human ACVRL1 (L164 to Q503 residues) expressed in bacterial expression system assessed as residual binding level at 10 uM by Kinomescan method relative to control
[2] = biological target: Atypical kinase COQ8B, mitochondrial (Homo sapiens) (UniProt Q96D53); experiment: Binding affinity to wild-type human full length ADCK4 (M1 to S544 residues) expressed in bacterial expression system assessed as residual binding level at 10 uM by Kinomescan method relative to control
Sequence of Atypical kinase COQ8B, mitochondrial (Homo sapiens) (Q96D53 whole entry, the tested form may be a part): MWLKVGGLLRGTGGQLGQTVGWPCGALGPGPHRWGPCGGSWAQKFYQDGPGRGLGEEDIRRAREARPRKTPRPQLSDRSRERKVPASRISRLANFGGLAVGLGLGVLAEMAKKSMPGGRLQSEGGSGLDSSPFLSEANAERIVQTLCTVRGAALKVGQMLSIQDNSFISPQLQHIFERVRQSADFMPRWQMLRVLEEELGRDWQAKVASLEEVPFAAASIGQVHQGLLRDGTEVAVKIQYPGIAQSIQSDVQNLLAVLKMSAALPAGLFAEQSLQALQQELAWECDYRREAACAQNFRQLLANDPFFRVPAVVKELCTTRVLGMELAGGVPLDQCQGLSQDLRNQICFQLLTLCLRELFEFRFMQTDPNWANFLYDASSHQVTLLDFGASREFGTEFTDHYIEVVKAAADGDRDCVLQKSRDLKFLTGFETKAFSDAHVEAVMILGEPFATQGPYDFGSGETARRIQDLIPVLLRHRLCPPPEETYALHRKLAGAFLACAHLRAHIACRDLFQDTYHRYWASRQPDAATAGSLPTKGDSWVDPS

[3] = biological target: RAC-alpha serine/threonine-protein kinase (Homo sapiens) (UniProt P31749); experiment: Binding affinity to wild-type human partial length AKT1 expressed in bacterial expression system assessed as residual binding level at 10 uM by Kinomescan method relative to control
[4] = biological target: Tyrosine-protein kinase receptor UFO (Homo sapiens) (UniProt P30530); experiment: Binding affinity to wild-type human partial length AXL (R497 to Y821 residues) expressed in bacterial expression system assessed as residual binding level at 10 uM by Kinomescan method relative to control
[5] = biological target: Mitotic checkpoint serine/threonine-protein kinase BUB1 (Homo sapiens) (UniProt O43683); experiment: Binding affinity to wild-type human partial length BUB1 (Q724 to K1085 residues) expressed in mammalian expression system assessed as residual binding level at 10 uM by Kinomescan method relative to control
Sequence of Mitotic checkpoint serine/threonine-protein kinase BUB1 (Homo sapiens) (O43683 whole entry, looked up, the tested form may be a part): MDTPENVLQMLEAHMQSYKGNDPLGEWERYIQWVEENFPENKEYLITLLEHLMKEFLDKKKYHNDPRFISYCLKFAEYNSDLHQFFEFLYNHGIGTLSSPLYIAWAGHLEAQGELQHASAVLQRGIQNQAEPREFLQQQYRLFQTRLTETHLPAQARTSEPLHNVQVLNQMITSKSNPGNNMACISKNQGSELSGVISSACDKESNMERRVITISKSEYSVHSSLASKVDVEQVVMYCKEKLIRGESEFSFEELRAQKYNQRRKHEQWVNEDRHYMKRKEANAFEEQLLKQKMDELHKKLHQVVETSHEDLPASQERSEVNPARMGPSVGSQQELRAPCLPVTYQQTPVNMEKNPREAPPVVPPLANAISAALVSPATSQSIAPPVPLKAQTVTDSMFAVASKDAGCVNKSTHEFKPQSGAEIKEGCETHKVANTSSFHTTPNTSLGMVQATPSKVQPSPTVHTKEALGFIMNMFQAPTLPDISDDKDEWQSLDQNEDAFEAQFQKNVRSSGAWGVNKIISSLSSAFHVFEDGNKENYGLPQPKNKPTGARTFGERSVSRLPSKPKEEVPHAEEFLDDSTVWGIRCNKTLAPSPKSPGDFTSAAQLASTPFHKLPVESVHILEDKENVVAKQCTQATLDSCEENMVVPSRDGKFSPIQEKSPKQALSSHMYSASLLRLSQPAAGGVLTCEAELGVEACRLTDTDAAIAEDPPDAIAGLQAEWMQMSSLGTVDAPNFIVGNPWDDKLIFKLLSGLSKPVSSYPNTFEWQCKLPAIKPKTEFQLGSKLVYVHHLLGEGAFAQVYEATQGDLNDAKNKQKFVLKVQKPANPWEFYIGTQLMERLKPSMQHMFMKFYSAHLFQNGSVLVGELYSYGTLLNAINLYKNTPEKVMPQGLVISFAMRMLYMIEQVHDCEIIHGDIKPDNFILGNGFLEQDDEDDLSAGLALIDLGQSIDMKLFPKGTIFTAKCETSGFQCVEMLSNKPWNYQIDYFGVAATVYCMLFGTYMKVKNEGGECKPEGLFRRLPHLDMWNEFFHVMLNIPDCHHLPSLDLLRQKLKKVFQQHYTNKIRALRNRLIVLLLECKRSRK

[6] = tested on: Epidermal growth factor receptor (Homo sapiens), P00533 [L861Q]; experiment: Binding affinity to human partial length EGFR L861Q mutant (R669 to V1011 residues) expressed in bacterial expression system assessed as residual binding level at 10 uM by Kinomescan method relative to control
[7] = biological target: Fibroblast growth factor receptor 4 (Homo sapiens) (UniProt P22455); experiment: Binding affinity to wild-type human partial length FGFR4 (G402 to E713 residues) expressed in bacterial expression system assessed as residual binding level at 10 uM by Kinomescan method relative to control
Sequence of Fibroblast growth factor receptor 4 (Homo sapiens) (P22455 22-802 limits assumed): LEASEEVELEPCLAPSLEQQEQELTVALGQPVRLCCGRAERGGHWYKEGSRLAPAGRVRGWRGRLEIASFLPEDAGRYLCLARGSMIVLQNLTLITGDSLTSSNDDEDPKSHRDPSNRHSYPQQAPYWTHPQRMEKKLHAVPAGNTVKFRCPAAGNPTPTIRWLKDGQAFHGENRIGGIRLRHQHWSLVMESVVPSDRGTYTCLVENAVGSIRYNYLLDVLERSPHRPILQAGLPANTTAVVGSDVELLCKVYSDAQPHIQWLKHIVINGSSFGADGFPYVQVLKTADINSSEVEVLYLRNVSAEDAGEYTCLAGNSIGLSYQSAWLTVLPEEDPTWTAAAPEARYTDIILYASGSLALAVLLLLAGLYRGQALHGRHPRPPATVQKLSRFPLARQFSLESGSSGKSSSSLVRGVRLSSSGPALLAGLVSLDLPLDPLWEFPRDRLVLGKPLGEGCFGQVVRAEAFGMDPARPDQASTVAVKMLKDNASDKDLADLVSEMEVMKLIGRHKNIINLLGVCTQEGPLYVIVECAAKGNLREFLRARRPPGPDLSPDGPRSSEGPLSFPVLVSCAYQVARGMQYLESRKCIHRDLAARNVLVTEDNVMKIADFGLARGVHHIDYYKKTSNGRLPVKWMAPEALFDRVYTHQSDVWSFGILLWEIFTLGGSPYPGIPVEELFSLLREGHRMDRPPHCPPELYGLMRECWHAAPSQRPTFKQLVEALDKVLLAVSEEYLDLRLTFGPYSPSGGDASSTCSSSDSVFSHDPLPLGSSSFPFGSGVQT

[8] = biological target: Tyrosine-protein kinase HCK (Homo sapiens) (UniProt P08631); experiment: Binding affinity to wild-type human full length HCK (M22 to P526 residues) expressed in bacterial expression system assessed as residual binding level at 10 uM by Kinomescan method relative to control
[9] = biological target: Serine/threonine-protein kinase MARK2 (Homo sapiens) (UniProt Q7KZI7); experiment: Binding affinity to wild-type human partial length MARK2 (M1 to R450 residues) expressed in bacterial expression system assessed as residual binding level at 10 uM by Kinomescan method relative to control
[10] = biological target: Maternal embryonic leucine zipper kinase (Homo sapiens) (UniProt Q14680); experiment: Binding affinity to wild-type human full length MELK (M1 to V651 residues) expressed in bacterial expression system assessed as residual binding level at 10 uM by Kinomescan method relative to control
[11] = biological target: Serine/threonine-protein kinase mTOR (Homo sapiens) (UniProt P42345); experiment: Binding affinity to wild-type human partial length MTOR (L1382 to W2549 residues) expressed in mammalian expression system assessed as residual binding level at 10 uM by Kinomescan method relative to control
[12] = biological target: Mitogen-activated protein kinase 11 (Homo sapiens) (UniProt Q15759); experiment: Binding affinity to wild-type human full length p38-beta (M1 to Q364 residues) expressed in bacterial expression system assessed as residual binding level at 10 uM by Kinomescan method relative to control
Sequence of Mitogen-activated protein kinase 11 (Homo sapiens) (Q15759 whole entry, the tested form may be a part): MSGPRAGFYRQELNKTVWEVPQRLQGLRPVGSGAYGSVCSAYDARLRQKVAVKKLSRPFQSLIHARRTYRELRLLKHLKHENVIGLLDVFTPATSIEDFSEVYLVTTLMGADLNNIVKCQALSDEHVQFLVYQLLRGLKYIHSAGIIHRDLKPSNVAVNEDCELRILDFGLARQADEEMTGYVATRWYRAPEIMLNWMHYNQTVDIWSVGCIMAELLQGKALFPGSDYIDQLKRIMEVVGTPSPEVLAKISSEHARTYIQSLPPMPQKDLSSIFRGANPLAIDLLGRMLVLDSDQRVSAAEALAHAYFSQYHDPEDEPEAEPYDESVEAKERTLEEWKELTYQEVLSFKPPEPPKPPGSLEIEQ

[13] = biological target: Cyclin-dependent kinase 14 (Homo sapiens) (UniProt O94921); experiment: Binding affinity to wild-type human full length PFTK1 (M1 to H451 residues) expressed in bacterial expression system assessed as residual binding level at 10 uM by Kinomescan method relative to control
[14] = tested on: Phosphatidylinositol 4,5-bisphosphate 3-kinase catalytic subunit alpha isoform (Homo sapiens), P42336 [E545A]; experiment: Binding affinity to human partial length PIK3CA E545A mutant (R108 to N1068 residues) expressed in mammalian expression system assessed as residual binding level at 10 uM by Kinomescan method relative to control
Sequence of Phosphatidylinositol 4,5-bisphosphate 3-kinase catalytic subunit alpha isoform (Homo sapiens), P42336 [E545A] (P42336 whole entry E545A, the tested form may be a part, canonical isoform): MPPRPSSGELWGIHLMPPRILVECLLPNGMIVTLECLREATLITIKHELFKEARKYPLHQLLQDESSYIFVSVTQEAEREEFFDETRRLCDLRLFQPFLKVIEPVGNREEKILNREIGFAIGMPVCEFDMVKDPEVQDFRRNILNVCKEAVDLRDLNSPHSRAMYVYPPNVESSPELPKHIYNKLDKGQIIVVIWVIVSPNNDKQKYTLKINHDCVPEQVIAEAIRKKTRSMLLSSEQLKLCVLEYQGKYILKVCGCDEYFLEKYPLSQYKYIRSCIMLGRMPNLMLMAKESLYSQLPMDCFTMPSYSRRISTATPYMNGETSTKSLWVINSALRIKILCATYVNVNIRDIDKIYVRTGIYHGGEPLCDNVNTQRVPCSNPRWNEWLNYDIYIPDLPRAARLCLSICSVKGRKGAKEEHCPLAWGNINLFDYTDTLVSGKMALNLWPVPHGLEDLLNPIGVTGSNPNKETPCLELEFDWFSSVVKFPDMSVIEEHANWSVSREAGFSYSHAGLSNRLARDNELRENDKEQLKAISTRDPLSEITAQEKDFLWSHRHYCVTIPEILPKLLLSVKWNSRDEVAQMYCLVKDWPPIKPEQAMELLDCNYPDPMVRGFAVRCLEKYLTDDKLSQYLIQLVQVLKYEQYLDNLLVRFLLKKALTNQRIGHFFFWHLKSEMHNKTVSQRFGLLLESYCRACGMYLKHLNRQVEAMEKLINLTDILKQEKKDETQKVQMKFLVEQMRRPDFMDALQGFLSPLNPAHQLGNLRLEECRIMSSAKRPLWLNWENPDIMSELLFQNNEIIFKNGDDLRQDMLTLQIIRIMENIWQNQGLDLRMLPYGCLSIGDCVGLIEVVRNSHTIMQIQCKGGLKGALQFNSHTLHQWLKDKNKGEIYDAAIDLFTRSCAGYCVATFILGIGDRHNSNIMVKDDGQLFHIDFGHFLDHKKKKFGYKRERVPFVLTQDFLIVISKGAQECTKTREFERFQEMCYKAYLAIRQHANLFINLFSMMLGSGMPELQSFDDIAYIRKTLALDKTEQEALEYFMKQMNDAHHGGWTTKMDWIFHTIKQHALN

[15] = biological target: Serine/threonine-protein kinase pim-2 (Homo sapiens) (UniProt Q9P1W9); experiment: Binding affinity to wild-type human partial length PIM2 (M1 to E291 residues) expressed in bacterial expression system assessed as residual binding level at 10 uM by Kinomescan method relative to control
[16] = biological target: Protein kinase C theta type (Homo sapiens) (UniProt Q04759); experiment: Binding affinity to wild-type human partial length PRKCQ (L350 to S706 residues) expressed in bacterial expression system assessed as residual binding level at 10 uM by Kinomescan method relative to control
[17] = biological target: Serine/threonine-protein kinase RIO3 (Homo sapiens) (UniProt O14730); experiment: Binding affinity to wild-type human full length RIOK3 (M1 to E519 residues) expressed in bacterial expression system assessed as residual binding level at 10 uM by Kinomescan method relative to control
[18] = biological target: Ribosomal protein S6 kinase alpha-5 (Homo sapiens) (UniProt O75582); experiment: Binding affinity to wild-type human partial length C-terminal RPS6KA5 kinase domain 2 (V390 to T718 residues) expressed in bacterial expression system assessed as residual binding level at 10 uM by Kinomescan method relative to control
[19] = biological target: STE20-like serine/threonine-protein kinase (Homo sapiens) (UniProt Q9H2G2); experiment: Binding affinity to wild-type human partial length SLK (S14 to A307 residues) expressed in bacterial expression system assessed as residual binding level at 10 uM by Kinomescan method relative to control
[20] = biological target: NUAK family SNF1-like kinase 2 (Homo sapiens) (UniProt Q9H093); experiment: Binding affinity to wild-type human partial length SNARK (P22 to A333 residues) expressed in mammalian expression system assessed as residual binding level at 10 uM by Kinomescan method relative to control
[21] = biological target: Serine/threonine-protein kinase TAO2 (Homo sapiens) (UniProt Q9UL54); experiment: Binding affinity to wild-type human partial length TAOK2 (M1 to A320 residues) expressed in mammalian expression system assessed as residual binding level at 10 uM by Kinomescan method relative to control
Sequence of Serine/threonine-protein kinase TAO2 (Homo sapiens) (Q9UL54 whole entry, the tested form may be a part): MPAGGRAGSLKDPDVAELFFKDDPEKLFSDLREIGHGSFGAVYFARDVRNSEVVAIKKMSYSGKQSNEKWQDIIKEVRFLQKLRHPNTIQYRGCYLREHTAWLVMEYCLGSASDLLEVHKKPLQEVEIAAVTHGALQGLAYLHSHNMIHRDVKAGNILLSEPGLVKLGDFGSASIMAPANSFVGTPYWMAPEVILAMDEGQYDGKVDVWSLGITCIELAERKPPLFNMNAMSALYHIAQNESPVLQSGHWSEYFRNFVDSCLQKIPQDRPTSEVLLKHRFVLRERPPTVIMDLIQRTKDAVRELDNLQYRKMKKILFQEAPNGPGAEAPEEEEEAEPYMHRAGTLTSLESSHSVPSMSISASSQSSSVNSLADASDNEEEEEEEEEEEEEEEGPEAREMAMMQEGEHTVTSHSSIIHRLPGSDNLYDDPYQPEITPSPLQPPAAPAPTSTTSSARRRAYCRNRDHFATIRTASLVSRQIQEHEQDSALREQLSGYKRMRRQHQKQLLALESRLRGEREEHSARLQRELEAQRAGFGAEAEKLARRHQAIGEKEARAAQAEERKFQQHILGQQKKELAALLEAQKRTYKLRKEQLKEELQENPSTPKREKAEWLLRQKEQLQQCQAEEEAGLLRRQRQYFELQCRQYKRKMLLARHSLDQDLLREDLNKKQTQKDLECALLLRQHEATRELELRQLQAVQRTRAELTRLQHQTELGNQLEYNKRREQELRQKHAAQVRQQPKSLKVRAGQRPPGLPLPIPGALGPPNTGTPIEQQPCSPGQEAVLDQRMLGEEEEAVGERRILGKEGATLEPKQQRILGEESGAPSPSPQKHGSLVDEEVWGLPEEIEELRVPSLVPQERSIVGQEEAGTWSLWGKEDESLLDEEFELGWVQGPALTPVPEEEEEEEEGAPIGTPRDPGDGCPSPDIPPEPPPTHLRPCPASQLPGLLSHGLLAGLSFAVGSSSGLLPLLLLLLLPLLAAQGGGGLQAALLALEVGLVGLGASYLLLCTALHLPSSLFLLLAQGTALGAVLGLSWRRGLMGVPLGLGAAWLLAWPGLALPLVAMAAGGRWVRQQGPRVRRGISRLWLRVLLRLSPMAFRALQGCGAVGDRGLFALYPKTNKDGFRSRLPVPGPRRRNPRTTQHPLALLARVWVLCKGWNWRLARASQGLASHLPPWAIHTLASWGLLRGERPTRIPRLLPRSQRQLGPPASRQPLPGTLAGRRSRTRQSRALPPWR

[22] = biological target: Serine/threonine-protein kinase TAO3 (Homo sapiens) (UniProt Q9H2K8); experiment: Binding affinity to wild-type human partial length TAOK3 (M1 to T316 residues) expressed in mammalian expression system assessed as residual binding level at 10 uM by Kinomescan method relative to control
[23] = biological target: TGF-beta receptor type-1 (Homo sapiens) (UniProt P36897); experiment: Binding affinity to wild-type human partial length TGFBR1 (D179 to M503 residues) expressed in bacterial expression system assessed as residual binding level at 10 uM by Kinomescan method relative to control
[24] = biological target: Tyrosine-protein kinase TXK (Homo sapiens) (UniProt P42681); experiment: Binding affinity to wild-type human partial length TXK (L238 to W527 residues) expressed in bacterial expression system assessed as residual binding level at 10 uM by Kinomescan method relative to control

CC(C)N1C(=O)C(NCCCN(C)C)=C(c2cn(C)c3ccccc23)C1=O.Cl
Activity [1]: 100% | Activity [2]: 99% | Activity [3]: 95% | Activity [4]: 99% | Activity [5]: 92% | Activity [6]: 80% | Activity [7]: 100% | Activity [8]: 100% | Activity [9]: 93% | Activity [10]: 100% | Activity [11]: 87% | Activity [12]: 96% | Activity [13]: 100% | Activity [14]: 95% | Activity [15]: 100% | Activity [16]: 100% | Activity [17]: 100% | Activity [18]: 96% | Activity [19]: 78% | Activity [20]: 79% | Activity [21]: 94% | Activity [22]: 88% | Activity [23]: 100% | Activity [24]: 88%
